Assay results as given in patent publication US8580794B2 (AbbVie Inc., priority 2009, dated 2013).

Legend:
GST-Bc1-2 = GST-Bc1-2 (Homo sapiens, UniProt P10415); assay: Time Resolved-Fluorescence Resonance Energy Transfer (TR-FRET) Bcl-2 binding assay with F-Bak peptide probe; conditions: GST-Bcl-2 1 nM, F-Bak probe 100 nM, Tb-anti-GST 1 nM; '<' = below limit of detection; read-out: TR-FRET Bcl-2 Binding Ki
RS4;11 cells = assay: RS4;11 Cell Viability Assay (CellTiter Glo); assay type: cell-based; conditions: Homo sapiens, RS4-11, 48 h, 50,000 cells per well, 10% human serum;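 also: RS4,11 acute lymphoblastic leukemia cells, viability as percent of untreated control cells, EC50 for loss of viable cells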
Procedure: The acute lymphoblastic leukemia (ALL) cell line RS4;11 was used as the primary human cell line to assess the cellular activity of Bcl-2 selective agents in vitro and their efficacy in vivo.
Cell cytotoxicity EC50 values were assessed using CellTiter Glo (Promega) according to the manufacturer's recommendations. The EC50 values were determined as a percentage of viable cells following treatment compared to the untreated control cells.

GST-Bc1-2, sequence (P10415 whole entry): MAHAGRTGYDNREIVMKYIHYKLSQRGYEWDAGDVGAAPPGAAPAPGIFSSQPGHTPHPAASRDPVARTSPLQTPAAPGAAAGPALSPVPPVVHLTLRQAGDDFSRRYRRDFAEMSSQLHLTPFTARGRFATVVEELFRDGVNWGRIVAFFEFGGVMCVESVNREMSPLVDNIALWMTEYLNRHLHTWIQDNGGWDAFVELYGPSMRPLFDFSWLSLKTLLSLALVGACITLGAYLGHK

`CC1(C)CCC(CN2CCN(c3ccc(C(=O)NS(=O)(=O)c4ccc(NC(=O)N5CCC(C#N)CC5)c([N+](=O)[O-])c4)c(Oc4cnc5[nH]ccc5c4)c3)CC2)=C(c2ccc(Cl)cc2)C1` [Example 381, N-(4-{[4-(4-{[2-(4-chlorophenyl)-4,4-dimethylcyclohex-1-en-1-yl]methyl}piperazin-1-yl)-2-(1H-pyrrolo[2,3-b]pyridin-5-yloxy)benzoyl]sulfamoyl}-2-nitrophenyl)-4-cyanopiperidine-1-carboxamide] gave a Ki (GST-Bc1-2) of less than 0.01 nM and an EC50 (RS4;11 cells) of 1.41 nM.

`CC1(C)CCC(CN2CCN(c3ccc(C(=O)NS(=O)(=O)c4ccc(NC(=O)N5CCC(C#N)CC5)c(Cl)c4)c(Oc4cnc5[nH]ccc5c4)c3)CC2)=C(c2ccc(Cl)cc2)C1` [Example 393, N-(2-chloro-4-{[4-(4-{[2-(4-chlorophenyl)-4,4-dimethylcyclohex-1-en-1-yl]methyl}piperazin-1-yl)-2-(1H-pyrrolo[2,3-b]pyridin-5-yloxy)benzoyl]sulfamoyl}phenyl)-4-cyanopiperidine-1-carboxamide] gave a Ki (GST-Bc1-2) of 0.263 nM and an EC50 (RS4;11 cells) greater than 1000 nM.

`CC1(C)CCC(CN2CCN(c3ccc(C(=O)NS(=O)(=O)c4ccc(OCC5CCC(CO)(CO)CC5)c([N+](=O)[O-])c4)c(Oc4cnc5[nH]ccc5c4)c3)CC2)=C(c2ccc(Cl)cc2)C1` [Example 391, N-[(4-{[4,4-bis(hydroxymethyl)cyclohexyl]methoxy}-3-nitrophenyl)sulfonyl]-4-(4-{[2-(4-chlorophenyl)-4,4-dimethylcyclohex-1-en-1-yl]methyl}piperazin-1-yl)-2-(1H-pyrrolo[2,3-b]pyridin-5-yloxy)benzamide] showed a Ki (GST-Bc1-2) of less than 0.01 nM and an EC50 (RS4;11 cells) of 8.41 nM.

In the case of `CC1(C)CCC(CN2CCN(c3ccc(C(=O)NS(=O)(=O)c4ccc5c(c4)nnn5CC4CCOCC4)c(Oc4cnc5[nH]ccc5c4)c3)CC2)=C(c2ccc(Cl)cc2)C1` [Example 384, 4-(4-{[2-(4-chlorophenyl)-4,4-dimethylcyclohex-1-en-1-yl]methyl}piperazin-1-yl)-2-(1H-pyrrolo[2,3-b]pyridin-5-yloxy)-N-{[1-(tetrahydro-2H-pyran-4-ylmethyl)-1H-benzotriazol-5-yl]sulfonyl}benzamide], the Ki (GST-Bc1-2) is reported as 0.704 nM and the EC50 (RS4;11 cells) is reported as greater than 1000 nM.

`COC(=O)[C@H]1CC[C@H](CNc2ccc(S(=O)(=O)NC(=O)c3ccc(N4CCN(CC5=C(c6ccc(Cl)cc6)CC(C)(C)CC5)CC4)cc3Oc3cnc4[nH]ccc4c3)cc2[N+](=O)[O-])CC1` [Example 379, methyl trans-4-{[(4-{[4-(4-{[2-(4-chlorophenyl)-4,4-dimethylcyclohex-1-en-1-yl]methyl}piperazin-1-yl)-2-(1H-pyrrolo[2,3-b]pyridin-5-yloxy)benzoyl]sulfamoyl}-2-nitrophenyl)amino]methyl}cyclohexanecarboxylate] gave a Ki (GST-Bc1-2) of less than 0.01 nM and an EC50 (RS4;11 cells) of 19.4 nM.

`CC1(C(=O)O)CCC(c2ccc(Cl)cc2)=C(CN2CCN(c3ccc(C(=O)NS(=O)(=O)c4ccc(NCC5CCOCC5)c([N+](=O)[O-])c4)c(Oc4cnc5[nH]ccc5c4)c3)CC2)C1` (centres unmarked) [Example 404, 4-(4-chlorophenyl)-1-methyl-3-[(4-{4-[({3-nitro-4-[(tetrahydro-2H-pyran-4-ylmethyl)amino]phenyl}sulfonyl)carbamoyl]-3-(1H-pyrrolo[2,3-b]pyridin-5-yloxy)phenyl}piperazin-1-yl)methyl]cyclohex-3-ene-1-carboxylic acid] showed a Ki (GST-Bc1-2) of less than 0.01 nM and an EC50 (RS4;11 cells) greater than 1000 nM.

Work on `COCC1(C)CCC(CN2CCN(c3ccc(C(=O)NS(=O)(=O)c4ccc(NCC5CCOCC5)c([N+](=O)[O-])c4)c(Oc4cnc5[nH]ccc5c4)c3)CC2)=C(c2ccc(Cl)cc2)C1` (centres unmarked) [Example 390, 4-(4-{[2-(4-chlorophenyl)-4-(methoxymethyl)-4-methylcyclohex-1-en-1-yl]methyl}piperazin-1-yl)-N-({3-nitro-4-[(tetrahydro-2H-pyran-4-ylmethyl)amino]phenyl}sulfonyl)-2-(1H-pyrrolo[2,3-b]pyridin-5-yloxy)benzamide] yielded a Ki (GST-Bc1-2) of less than 0.01 nM and an EC50 (RS4;11 cells) of 5.06 nM.
